{
  "source": "paper PMC12064818",
  "about": "“A general assay platform to study protein pharmacology using ligand-dependent structural dynamics” (Nature Communications, 2025)",
  "key": {"[1]": {"biological_target": "B. malayi iPGM-C-HiBiT (Brugia malayi, UniProt Q4VWF8)", "sequence (Q4VWF8 2-515)": "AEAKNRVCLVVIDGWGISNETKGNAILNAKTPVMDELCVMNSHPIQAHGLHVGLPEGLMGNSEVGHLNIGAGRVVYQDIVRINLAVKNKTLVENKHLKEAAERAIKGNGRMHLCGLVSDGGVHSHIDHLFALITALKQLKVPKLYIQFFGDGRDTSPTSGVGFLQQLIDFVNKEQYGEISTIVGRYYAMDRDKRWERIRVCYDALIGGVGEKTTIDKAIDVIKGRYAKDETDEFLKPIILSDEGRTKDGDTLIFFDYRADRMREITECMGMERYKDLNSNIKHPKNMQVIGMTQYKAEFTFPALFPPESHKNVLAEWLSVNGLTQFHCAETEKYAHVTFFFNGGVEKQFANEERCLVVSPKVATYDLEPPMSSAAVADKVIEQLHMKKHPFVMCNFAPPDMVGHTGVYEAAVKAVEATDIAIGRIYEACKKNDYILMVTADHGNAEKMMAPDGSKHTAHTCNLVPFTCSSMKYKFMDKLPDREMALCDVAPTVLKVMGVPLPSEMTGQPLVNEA", "details": "B. malayi iPGM-C-HiBiT SDR 0.5 nM; ligand […] SDR"}, "[2]": {"biological_target": "C. elegans iPGM-C-HiBiT (Caenorhabditis elegans, UniProt G5EFZ1)", "sequence (G5EFZ1 2-539)": "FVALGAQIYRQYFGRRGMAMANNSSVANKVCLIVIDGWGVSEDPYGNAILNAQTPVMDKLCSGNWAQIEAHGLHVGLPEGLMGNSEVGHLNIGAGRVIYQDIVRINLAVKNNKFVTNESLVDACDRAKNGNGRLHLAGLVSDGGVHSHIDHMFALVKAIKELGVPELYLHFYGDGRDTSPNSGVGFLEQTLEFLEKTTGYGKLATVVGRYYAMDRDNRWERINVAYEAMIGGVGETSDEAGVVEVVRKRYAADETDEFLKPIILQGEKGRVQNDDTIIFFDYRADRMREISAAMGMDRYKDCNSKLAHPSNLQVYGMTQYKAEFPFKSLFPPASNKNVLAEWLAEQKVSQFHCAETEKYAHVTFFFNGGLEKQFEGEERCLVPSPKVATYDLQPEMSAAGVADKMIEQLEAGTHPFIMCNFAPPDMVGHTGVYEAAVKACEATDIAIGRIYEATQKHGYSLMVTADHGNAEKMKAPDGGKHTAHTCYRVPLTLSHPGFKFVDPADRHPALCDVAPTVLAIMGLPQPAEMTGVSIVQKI", "assay": "iPGM coupled-enzyme assay, C. elegans iPGM-C-HiBiT", "format": "biochemical", "set-up": "cDNA, containing Phe2-Ile539 and the 6xHis tag; His6 (C); made in house; host or cells: E. coli", "details": "C. elegans iPGM-C-HiBiT Std 5 nM; ligand […] Std", "protocol": "The enzyme activity of C. elegans or B. malayi iPGM-C-HiBiT was measured using the functional coupled-enzyme luminescence end-point output assay for iPGM as previously described[16],[41],[68]. Briefly, the indicated concentration of 4 μL of iPGM-C-HiBiT was dispensed into 1536-well white, high solid base, medium bind plates in a pH 8.0 iPGM assay buffer (30 mM Tris-HCl, 5 mM magnesium sulfate, 20 mM potassium chloride and 0.08% BSA) with the BioRaptr 2. Compounds and controls were added to each plate with a pintool as described in Supplementary Data 8. Enzymes were incubated with peptide for > 20 min at ambient temperature, protected from light. […] Enzyme was at 5 nM final concentration for the standard assay with an estimated KM 3-phosphoglycerate (3PG) substrate concentration of 400 μM. Plates were incubated at ambient temperature for 10 min, protected from light, then measured by a ViewLux plate reader. […] See Supplementary Table 6 for additional details.\nSupplementary Table 6. Protocol for Co- factor independent phosphoglycerate mutase (iPGM) coupled-enzyme assay\nSupplementary Table 6: Protocol for Co-factor independent phosphoglycerate m utase (iPGM) coupled- enzym e assay […]\nNo enzym e control (colum n 1) and enzym e solutions (5 nM Bm iPGM-C-HiBiT or Ce iPGM-1 Reagent 4 µLC-HiBiT dialyzed against Zn/Mn final assay concentration) in PGM enzym e buffer; white/solid bottom , m edium bind, high base plates (Greiner), dispensed with BioRaptr 2 […]\nin 8-pt 1:6 titration series in duplicate); com pounds transferred to respective colum ns with […]\nTest com pounds: m acrocyclic peptides at 5 m M stock concentration in 16-pt, 1:3 titration […]\ntransferred to respective colum ns with Pintool\n3 Incubation 20 m inIncubate enzym e + com pounds at am bient tem p for 20 m in, protected from light 4 Reagent 2 µLSubstrate solution; 0.4 m M final concentration 3PG in coupled-enzym e substrate buffer; dispensed with BioRaptr 2\n5 Incubation 5 m inAm bient tem perature, protected from light\n6 Reagent 4 µLKinase-Glo Plus reagent (Prom ega) prepared according to m anufacturer’s protocol;\n7 Incubation 10 m inRoom tem perature, protected from light\n8 Detector ViewLuxRead plate lum inescence (Exposure = 1 sec; Gain = Medium; Speed = Slow; Binning = 2X) […]\nin 20% glycerol); Bm iPGM-C-HiBiT enzym e 10 µM stock solution in 20% glycerol.\nCoupled-enzym e substrate solution: 30 m M Tris-HCl, pH 8.0; 5 m M MgSO4; 20 m M KCl; 9 m M ADP (3 m M final); 0.1 4 units/µl enolase (Millipore Sigm a, Cat# E6126); 0.15 units/µl pyruvate kinase (from rabbit m uscle, Millipore Sigm a, Cat #"}},
  "data": [
    {"compound": "CC(C)C[C@H](NC(=O)[C@H](Cc1ccc(O)cc1)NC(=O)[C@@H]1CSCC(=O)N[C@H](Cc2ccc(O)cc2)C(=O)N[C@@H](CC(=O)O)C(=O)N[C@@H](Cc2ccc(O)cc2)C(=O)N2CCC[C@H]2C(=O)NCC(=O)N[C@@H](CC(=O)O)C(=O)N[C@@H](Cc2ccc(O)cc2)C(=O)N1)C(=O)N[C@@H](Cc1ccc(O)cc1)C(=O)NCC(=O)N[C@H](C(=O)N[C@@H](CS)C(=O)NCC(N)=O)[C@@H](C)O", "note": "[Ce-2]", "values": [
      {"measurement": "SDR assay statistics Ave RLU", "setting": "[1]", "result": 552.2, "unit": "RLU"},
      {"measurement": "SDR assay statistics S:B", "setting": "[1]", "result": 1.8},
      {"measurement": "SDR assay statistics S:N", "setting": "[1]", "result": 14.4},
      {"measurement": "SDR assay statistics Z’", "setting": "[1]", "result": 0.702},
      {"measurement": "Standard assay statistics Ave RLU", "setting": "[2]", "result": 3361.1, "unit": "RLU"},
      {"measurement": "Standard assay statistics S:B", "setting": "[2]", "result": 8.4},
      {"measurement": "Standard assay statistics S:N", "setting": "[2]", "result": -16.5},
      {"measurement": "Standard assay statistics Z’", "setting": "[2]", "result": 0.816}
    ]}
  ]
}
